Values after ≈ are worked out from the molar mass of the structure shown. Read-outs that look alike come from different tables or passages of the source.

The text below walks through data of patent publication US11866416B2, “Streptococcus mutans glucosyl transferase inhibitors for dental caries therapy” (UAB Research Foundation, priority 2018, dated 2024).

One test has as its system S. mutans. Kind of test: microbe, parasite or virus in culture. The conditions noted are these: for Growth MIC50: Table 8, stilbenes. Format: cell-based, Streptococcus mutans. In short, it runs like this:
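Mid-exponential cultures (OD470 0.6) in THB were exposed to compound concentrations for 16 h, with growth read at OD470 and normalised to 1% DMSO control (100%). CFU/mL were also counted after 24 h at 37 °C and compared with the DMSO control.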

A further test has as its system S. mutans Gtfs. Description: Gtf zymographic assay with SDS-PAGE. The conditions noted are these: for glucan production in zymogram assay: stilbenes, versus DMSO control. Format: biochemical, Streptococcus mutans. As to the method: A well-established zymographic assay was used to determine enzymatic activity of Gtfs (Mattos-Graner et al. (2004) J. Clin. Microbiol. 42, […]). In brief, overnight S. mutans UA159 cultures were diluted 1:100 in fresh 5 mL THB with 50 μL of selective compounds at a series of concentrations. Treated bacteria were grown to OD470 of 1.0, and spun down by centrifugation at 4° C., and culture supernatants were collected and filtered through a 0.22-μm-pore-size filter membrane to remove residual bacterial cells and dialyzed at 4° C. against 0.02 M sodium phosphate buffer (pH 6.8), with 10 μM phenylmethylsulfonyl fluoride (PMSF), followed by a second dialysis against 0.2 mM sodium phosphate containing 10 μM PMSF. After dialysis, 4 mL of samples were concentrated to 40 μL by 100K Amicon Ultra-4 centrifugal filter (Merck Millipore Ltd.). For electrophoresis and zymographic analysis, 10 μL of each concentrated culture supernatant was applied to 8% SDS-PAGE in duplicate. One gel was used for protein staining with Coomassie blue dye, while the other one was subjected to zymographic assay as described (Mattos-Graner et al. (2004) J. Clin. Microbiol. 42, […]). The resultant white opaque glucan bands were visualized against a black background.
Inhibition of the activity of Gtfs determined by zymographic assays. Well established zymographic assay was used to determine enzymatic activity of Gtfs. In brief, overnight S. mutans UA159 cultures were diluted 1:100 in fresh 5 mL THB. Bacteria were grown to OD470 of 1.0, and spun down by centrifugation at 4° C. and culture supernatants were collected and filtered through a 0.22-μm-pore-size filter membrane to remove residual bacterial cells and dialyzed at 4° C. against 0.02 M sodium phosphate buffer (pH 6.8), with 10 μM phenylmethylsulfonyl fluoride (PMSF), followed by a second dialysis against 0.2 mM sodium phosphate containing 10 μM PMSF. After dialysis, 4 mL of samples were concentrated to 40 μL by 100K Amicon Ultra-4 centrifugal filter (Merk Millipore Ltd.). For electrophoresis and zymographic analysis, 10 μL of each concentrated culture supernatant was applied to 8% SDS-PAGE in duplicate. One gel was used for protein staining with Coomassie blue dye, while the other one was subjected to zymographic assay. For zymogram analysis, following electrophoretic separation, gels were washed twice for 15 min each with renaturing buffer containing 2.5% Triton X-100. Gels were then incubated for 18 h at 37° C. with 0.2 M sodium phosphate buffer (pH 6.5) containing 0.2% dextran T70, 5% sucrose, and varying concentrations of the small molecule inhibitors. The reactions were stopped by washing gels with distilled water at 4° C. for 10 min, and digital images of the resultant white opaque glucan bands were visualized against a black background and captured using a digital camera.
Inhibition of the activity of Gtfs determined by zymographic assays. A well-established zymographic assay was used to determine enzymatic activity of Gtfs (Mattos-Graner, R. O., Napimoga, M. H., Fukushima, K., Duncan, M. J., Smith, D. J., J Clin Microbiol, 2004, 42, 4586). In brief, overnight S. mutans UA159 cultures were diluted 1:100 in fresh 5 mL THB with 50 μL of selective compounds at a series of concentrations. Treated bacteria were grown to OD470 of 1.0, and spun down by centrifugation at 4° C., and culture supernatants were collected and filtered through a 0.22-μm-pore-size filter membrane to remove residual bacterial cells and dialyzed at 4° C. against 0.02 M sodium phosphate buffer (pH 6.8), with 10 μM phenylmethylsulfonyl fluoride (PMSF), followed by a second dialysis against 0.2 mM sodium phosphate containing 10 μM PMSF. After dialysis, 4 mL of samples were concentrated to 40 μL by 100K Amicon Ultra-4 centrifugal filter (Merk Millipore Ltd.). For electrophoresis and zymographic analysis, 10 μL of each concentrated culture supernatant was applied to 8% SDS-PAGE in duplicate. […]

Setting [1] is: Streptococcus mutans, Table 3, >300 = no inhibition up to 300 μM, NI = no inhibition up to 400 μM, read-out: Growth Inhibition MIC50.
The mark [2] stands for this setting: Streptococcus mutans, Table 4, stilbenes, average of at least 5 measurements, NI = no inhibition, read-out: Growth MIC50.
[3] abbreviates: average of at least 5 measurements, NI = no inhibition.

In the case of `NC(=O)c1ccccc1NC(=O)c1cc2cc([N+](=O)[O-])ccc2s1` [#G43], the “S. mutans cell viability (CFU) versus control” value in the test with S. mutans (up to 200 μM) is listed as “No significant difference”. In addition, in the test with S. mutans Gtfs (25 μM, Gtfs from wild type S. mutans), the “glucan production of the Gtfs in zymographic assay” value was “drastically reduced the glucan production”. Besides, in the test with S. mutans Gtfs (50 μM, Gtfs from S. mutans UA159 supernatants), the “glucan bands in zymographic assay” value is on record as “drastically reduced the glucan bands”.
`Oc1cc(O)cc(/C=C/c2ccc(O)c(O)c2)c1` [Piceatannol] had an inhibition of S. mutans cell viability (%) at 400 µM in the test with S. mutans (Streptococcus mutans, 400 μM) of 37%. The MIC50 in the test with S. mutans (setting [1]) came out at 564 ± 38 µM (≈ 138 µg/mL); with S. mutans (setting [2]) it was 564 ± 37.8 µM (≈ 138 µg/mL). The inhibition at 52 µM in the test with S. mutans (Streptococcus mutans, at 52 μM, read-out: growth of S. mutans inhibited) was below 10%. In addition, in the test with S. mutans (setting [3]), the “Growth MIC50” value was determined as 564 ± 37.8 µM. For the same molecule, in the test on S. mutans Gtfs, the “glucan production in zymogram assay” value is listed as “greatly reduced glucan production”.
In the case of `Oc1ccc(/C=C/c2cc(O)cc(O)c2)cc1` [Resveratrol, reference compound], the values for the MIC50 in the test on S. mutans (setting [1]) and in the test with S. mutans (setting [2]) were 546 ± 16 µM (≈ 125 µg/mL) and 546 ± 15.9 µM (≈ 125 µg/mL), respectively. In the test with S. mutans (setting [3]), the “Growth MIC50” value turned out to be 546.4 ± 15.9 µM. For the same molecule, the “glucan production in zymogram assay” value with S. mutans Gtfs was “marginal inhibition”.
